Measured values published in patent US8633184B2, “Benzoazepin-oxy-acetic acid derivatives as PPAR-delta agonists used for the increase of HDL-C, lower LDL-C and lower cholesterol” (Janssen Pharmaceutica N.V., priority 2006, dated 2014).
“And” between values parts separate entries of the source, which are not always exact repeats. Equal entries are not always repeated.

How the values were obtained:
Assay type in all cases: cell-based
Conditions in all cases: 18-24 hrs
[1] = target: T1, PPARδ (Homo sapiens, UniProt Q03181); experiment: Transfection assay, GAL4-PPARδ LBD luciferase reporter in HEK293 cells
T1 construct: expressed in transfected cells; host or cells: HEK293
T1 sequence (Q03181 211-439 limits assumed): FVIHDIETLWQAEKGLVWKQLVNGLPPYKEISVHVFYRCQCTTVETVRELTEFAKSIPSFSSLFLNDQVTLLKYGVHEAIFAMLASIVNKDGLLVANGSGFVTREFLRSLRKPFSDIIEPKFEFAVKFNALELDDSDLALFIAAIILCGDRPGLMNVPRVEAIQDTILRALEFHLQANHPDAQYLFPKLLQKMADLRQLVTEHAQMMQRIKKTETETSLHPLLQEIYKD
Description: (§1) HEK293 cells were grown in DMEM/F12 medium supplemented with 10% FBS and glutamine (Invitrogen) and incubated in a 5% CO2 incubator at 37° C. The cells were co-transfected using DMRIE-C reagent (Invitrogen) in serum free medium (Opti-MEM, Invitrogen) with two mammalian expression plasmids, one containing the DNA sequence coding for the ligand binding domains of either PPARα, γ or δ fused to the yeast GAL4 DNA binding domain and the other containing the promoter sequence of the yeast GAL4 (UAS) fused to the firefly luciferase cDNA reporter. The next day, the medium was changed to DMEM/F12 medium supplemented with 5% charcoal treated serum (Hyclone) and glutamine. After 6 hrs the cells were trypsinized and seeded at a density of 50,000 cells/well into 96 well plates and incubated overnight as above. The cells were then treated with test compounds or vehicle and incubated for 18-24 hrs as above. Luciferase reporter activity was measured using the Steady-Glo Luciferase Assay Kit from Promega. DMRIE-C Reagent was purchased from GIBCO Cat. No. 10459-014. OPTI-MEM I Reduced Serum Medium was purchased from GIBCO (Cat. No. 31985). Steady-Glo Luciferase Assay Kit was purchased from Promega (Part #E254B).
(§2) A variety of example compounds have been made and tested, with a range of in vitro results. Below, in Table 2, are representative compounds and data; in some cases, where multiple EC50's are shown, multiple measurements were taken. Naturally, different compounds in Formula (I) may have not activities identical to any one compound below.

[2] = target: T2, PPARα (Homo sapiens, UniProt Q07869); experiment: Transfection assay, GAL4-PPARα LBD luciferase reporter in HEK293 cells
T2 construct: expressed in transfected cells; host or cells: HEK293
T2 sequence (Q07869 239-466 limits assumed): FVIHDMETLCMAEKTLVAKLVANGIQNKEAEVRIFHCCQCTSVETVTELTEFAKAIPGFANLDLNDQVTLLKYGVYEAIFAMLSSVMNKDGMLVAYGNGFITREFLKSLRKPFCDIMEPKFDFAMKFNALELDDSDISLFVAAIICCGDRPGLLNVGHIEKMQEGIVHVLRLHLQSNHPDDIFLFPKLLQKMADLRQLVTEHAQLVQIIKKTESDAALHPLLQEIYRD
Description: as §1, §2

[3] = target: T3, PPARγ (Homo sapiens, UniProt P37231); experiment: Transfection assay, GAL4-PPARγ LBD luciferase reporter in HEK293 cells
T3 construct: expressed in transfected cells; host or cells: HEK293
T3 sequence (P37231 238-503 limits assumed): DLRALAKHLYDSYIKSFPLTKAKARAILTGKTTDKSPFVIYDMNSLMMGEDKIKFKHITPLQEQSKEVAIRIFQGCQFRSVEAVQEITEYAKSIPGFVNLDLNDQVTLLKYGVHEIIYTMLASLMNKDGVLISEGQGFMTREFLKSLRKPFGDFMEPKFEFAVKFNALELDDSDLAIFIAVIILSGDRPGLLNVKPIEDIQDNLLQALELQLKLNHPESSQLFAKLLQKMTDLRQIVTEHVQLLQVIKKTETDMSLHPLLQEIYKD
Description: as §1, §2

EC50 [1] | EC50 [2] | EC50 [3] | SMILES
< 3 nM and 1.4 nM | > 3000 nM | > 3000 nM | CC(c1ccc(-c2ccc(C(F)(F)F)cc2)s1)N1CCc2ccc(OCC(=O)O)cc2CC1 (racemic) [compound 27]
0.92 nM | > 3000 nM | > 1000 nM | CC(c1ccc(-c2ccc(C(F)(F)F)cc2)s1)N1CCc2ccc(OCC(=O)O)cc2CC1 (single isomer, unassigned) [27a]
12.6 nM and 13.9 nM | > 3000 nM | > 3000 nM | CC(c1ccc(-c2ccc(C(F)(F)F)cc2)s1)N1CCc2ccc(OCC(=O)O)cc2CC1 (single isomer, unassigned) [27b]
1.8 nM | > 3000 nM | > 3000 nM | CC(c1ccc(-c2ccc(C(F)(F)F)cc2)o1)N1CCc2ccc(OCC(=O)O)cc2CC1 (single isomer, unassigned) [28a]
5.4 nM and 9.8 nM | > 3000 nM | > 3000 nM | CC(c1ccc(-c2ccc(C(F)(F)F)cc2)o1)N1CCc2ccc(OCC(=O)O)cc2CC1 (single isomer, unassigned) [28b]
34.1 nM and 66.6 nM | 546 nM and 758 nM | > 3000 nM | O=C(O)COc1ccc2c(c1)CCN(Cc1cc(-c3ccc(C(F)(F)F)cc3)ns1)CC2 [compound 1]
51.6 nM | > 3000 nM | > 3000 nM | Cc1nc(-c2ccc(C(F)(F)F)cc2)sc1CN1CCc2ccc(OCC(=O)O)cc2CC1 [compound 5]
74.2 nM and 70.9 nM | > 3000 nM | > 3000 nM | O=C(O)COc1ccc2c(c1)CCN(Cc1ccc(-c3ccc(C(F)(F)F)cc3)o1)CC2 [compound 9]
53 nM and 87.7 nM | > 3000 nM | > 3000 nM | CC(C)(Oc1ccc2c(c1)CCN(Cc1ccc(-c3ccc(C(F)(F)F)cc3)o1)CC2)C(=O)O [compound 10]
136 nM | > 1000 nM | > 3000 nM | O=C(O)COc1ccc2c(c1)CCN(Cc1cc(-c3ccc(C(F)(F)F)cc3)on1)CC2 [compound 11]
174 nM and 193 nM | > 3000 nM | > 3000 nM | Cc1cc(-c2ccc(C(F)(F)F)cc2)sc1CN1CCc2ccc(OCC(=O)O)cc2CC1 [compound 13]
104 nM | > 3000 nM | > 3000 nM | Cc1c(-c2ccc(C(F)(F)F)cc2)csc1CN1CCc2ccc(OCC(=O)O)cc2CC1 [compound 15]
439 nM | > 3000 nM | > 3000 nM | O=C(O)COc1ccc2c(c1)CCN(Cc1csc(-c3ccc(C(F)(F)F)cc3)n1)CC2 [compound 17]
174 nM | > 3000 nM | > 3000 nM | Cc1nc(-c2ccc(C(F)(F)F)cc2)oc1CN1CCc2ccc(OCC(=O)O)cc2CC1 [compound 18]
> 3000 nM | > 3000 nM | > 3000 nM | O=C(O)COc1ccc2c(c1)CCN(CCc1ccc(-c3ccc(C(F)(F)F)cc3)s1)CC2 [compound 22]
109 nM and 70.2 nM | > 3000 nM | > 3000 nM | O=C(O)COc1ccc2c(c1)CCN(Cc1cc(-c3ccc(C(F)(F)F)cc3)cs1)CC2 [compound 23]
27.1 nM and 22 nM | > 1000 nM | > 3000 nM | O=C(O)COc1ccc2c(c1)CCN(Cc1cnc(-c3ccc(C(F)(F)F)cc3)s1)CC2 [compound 24]
11 nM and 10.8 nM | > 1000 nM | > 3000 nM | CC1CN(Cc2ccc(-c3ccc(C(F)(F)F)cc3)s2)CCc2ccc(OCC(=O)O)cc21 (stereo not drawn) [compound 25]
15.8 nM | > 3000 nM | > 3000 nM | CC1CN(Cc2ccc(-c3ccc(C(F)(F)F)cc3)o2)CCc2ccc(OCC(=O)O)cc21 (stereo not drawn) [compound 26]
< 3 nM | > 3000 nM | > 3000 nM | CC(c1ccc(-c2ccc(C(F)(F)F)cc2)o1)N1CCc2ccc(OCC(=O)O)cc2CC1 (stereo not drawn) [compound 28]
373 nM | > 3000 nM | > 3000 nM | O=C(O)COc1ccc2c(c1)CCN(Cc1ccc(-c3ccc(OC(F)(F)F)cc3)o1)CC2 [compound 34]
169 nM | > 3000 nM | > 3000 nM | O=C(O)COc1ccc2c(c1)CCN(Cc1ccc(-c3ccc(Cl)cc3)o1)CC2 [compound 35]
29.2 nM | > 3000 nM | > 3000 nM | Cc1cc(-c2ccc(C(F)(F)F)cc2)oc1CN1CCc2ccc(OCC(=O)O)cc2CC1 [compound 36]
18 nM | 31 nM | > 1000 nM | O=C(O)C1(Oc2ccc3c(c2)CCN(Cc2ccc(-c4ccc(C(F)(F)F)cc4)o2)CC3)CC1 [compound 38]
> 1000 nM | > 3000 nM | > 3000 nM | O=C(O)COc1ccc2c(c1)CCN(Cc1ccc(-c3ccc(C(F)(F)F)cc3)cc1)CC2 [compound 40]

Continued, molecule first:

SMILES | EC50 [1] | EC50 [2] | EC50 [3]
CC(C)(Oc1ccc2c(c1)CCN(Cc1cc(-c3ccc(C(F)(F)F)cc3)ns1)CC2)C(=O)O [compound 2] | 162 nM | > 3000 nM | > 3000 nM
O=C(O)COc1ccc2c(c1)CCN(Cc1nc(-c3ccc(C(F)(F)F)cc3)ns1)CC2 [compound 3] | 143 nM | > 3000 nM | > 3000 nM
CC(C)(Oc1ccc2c(c1)CCN(Cc1nc(-c3ccc(C(F)(F)F)cc3)ns1)CC2)C(=O)O [compound 4] | 95.2 nM | > 3000 nM | > 3000 nM
Cc1nc(-c2ccc(C(F)(F)F)cc2)sc1CN1CCc2ccc(OC(C)(C)C(=O)O)cc2CC1 [compound 6] | 243 nM | > 1000 nM | > 3000 nM
CC(C)(Oc1ccc2c(c1)CCN(Cc1ccc(-c3ccc(C(F)(F)F)cc3)s1)CC2)C(=O)O [compound 8] | 85.9 nM and 123 nM | > 1000 nM | > 3000 nM
CC(C)(Oc1ccc2c(c1)CCN(Cc1cc(-c3ccc(C(F)(F)F)cc3)on1)CC2)C(=O)O [compound 12] | 122 nM | > 1000 nM | > 3000 nM
Cc1cc(-c2ccc(C(F)(F)F)cc2)sc1CN1CCc2ccc(OC(C)(C)C(=O)O)cc2CC1 [compound 14] | 398 nM | > 3000 nM | > 3000 nM
Cc1c(-c2ccc(C(F)(F)F)cc2)csc1CN1CCc2ccc(OC(C)(C)C(=O)O)cc2CC1 [compound 16] | 375 nM | > 3000 nM | > 3000 nM
Cc1nc(-c2ccc(C(F)(F)F)cc2)oc1CN1CCc2ccc(OC(C)(C)C(=O)O)cc2CC1 [compound 19] | 231 nM | > 3000 nM | > 3000 nM
O=C(O)COc1ccc2c(c1)CCN(Cc1cnn(-c3ccc(C(F)(F)F)cc3)c1)CC2 [compound 20] | > 1000 nM | > 3000 nM | > 3000 nM
CC(C)(Oc1ccc2c(c1)CCN(Cc1cnn(-c3ccc(C(F)(F)F)cc3)c1)CC2)C(=O)O [compound 21] | 422 nM | > 3000 nM | > 3000 nM
CC(c1cnc(-c2ccc(C(F)(F)F)cc2)s1)N1CCc2ccc(OCC(=O)O)cc2CC1 (stereo not drawn) [compound 29] | < 3 nM | > 3000 nM | 622 nM
CCC(c1ccc(-c2ccc(C(F)(F)F)cc2)s1)N1CCc2ccc(OCC(=O)O)cc2CC1 (stereo not drawn) [compound 30] | 0.9 nM | > 3000 nM | > 3000 nM
O=C(O)COc1ccc2c(c1)CCN(Cc1ccc(-c3ccc(Cl)cc3Cl)s1)CC2 [compound 31] | 237 nM | > 3000 nM | > 3000 nM
O=C(O)COc1ccc2c(c1)CCN(Cc1ccc(-c3ccc(OC(F)(F)F)cc3)s1)CC2 [compound 32] | 157 nM | > 3000 nM | > 3000 nM
O=C(O)COc1ccc2c(c1)CCN(Cc1ccc(-c3ccc(Cl)cc3Cl)o1)CC2 [compound 33] | 148 nM and 167 nM | > 3000 nM | > 3000 nM
O=C(O)C1(Oc2ccc3c(c2)CCN(Cc2ccc(-c4ccc(C(F)(F)F)cc4)s2)CC3)CC1 [compound 37] | 5.3 nM | > 3000 nM | > 3000 nM
O=C(O)C1(Oc2ccc3c(c2)CCN(Cc2cnc(-c4ccc(C(F)(F)F)cc4)s2)CC3)CC1 [compound 39] | 12 nM | > 1000 nM | > 1000 nM
